Measured values taken from US11352350B2, “IRAK degraders and uses thereof” (Kymera Therapeutics, Inc., priority 2018, dated 2022).
pIC50: −log10 of the molar value. Like-named read-outs stand apart in the source and are kept apart here.

What was measured:
[1] = target: IRAK4 (Homo sapiens (Human), UniProt Q9NWZ3); assay: IRAK4 MSD degradation in OCI-LY10; assay type: cell-based; conditions: MSD
Description: Degradation of IRAK4 in OCI-LY10 was quantitatively measured using Meso Scale Discovery technology. […] Compounds were then added to the assay plates with a final top concentration of 1 to 10 μM in a 1:3 dilution series with total of 8 doses. The assay plates were then incubated for 4 to 24 hours at 37° C. under 5% CO2. […] To prepare MSD assay plates (Meso Scale Discovery Catalog number L15XA-3), the plates were coated with […] capture antibody (mouse Anti-IRAK4 antibody [2H9], ab119942) in PBS, at 40 μL/well. […] Cell lysates were then added to MSD assay plates and the plates were incubated at room temperature for 1 hour. The plates were then washed 3 times with 150 μL/well TBST buffer and 25 μL/well primary detection antibody (rabbit Anti-IRAK4 antibody [Y279], from Abcam. Catalog number ab32511, […]). The assay plates were then incubated at room temperature for 1 hour, washed 3 times with 150 μL/well TBST buffer and 25 µL/well secondary detection antibody, SULFO-TAG anti-rabbit antibody were added (anti rabbit antibody from Meso Scale Discovery, Catalog number R32AB-1, 1 μg/mL). The assay plates were then incubated at room temperature for 1 hour, washed 3 times with 150 μL/well TB ST buffer, and 150 μL/well MSD reading buffer (Meso Scale Discovery catalog number R92TC-2) was added. The plates were then analyzed by a MSD reader (Meso Scale Discovery, Model Quick Plex SQ 120). The data was then analyzed by software Prism 7.0 from GraphPad and the dose-depended IRAK4 degradation were fit using a three-parameter logistic equation to calculate DC50.

[2] = test system: OCI-LY10; assay: CTG Cell Viability Assay - OCI-LY10; assay type: cell-based, human; conditions: OCI-LY10, 4 days, read-out: CTG Cell Viability Assay - OCI-LY10: Average external-IC50
Description: Compound-mediated viability effect on OCI-LY10 or TMD8 was quantitatively determined using the CellTiter-Glo® Luminescent Cell Viability Assay kit from Promega (Catalog number G7570) following manufacturer's recommended procedures. […] Compounds were then added to the assay plate with final top concentration of 10 μM and 1:3 dilution series with total of 9 doses. The final DMSO concentration was normalized to 0.2%. The assay plates were incubated at 37° C. for 4 days under 5% CO2. Then the assay plate was equilibrated at room temperature for 10 minutes. […] The data was then analyzed by software Prism 7.0 from GraphPad and the dose response curves were fit using a three-parameter logistic equation to calculate IC50.

[3] = OCI-LY10, 4 hrs, read-out: IRAK4 MSD degradation in OCI-LY10 at 4 hrs: Average external-Abs DC50
[4] = OCI-LY10, 24 hrs, read-out: IRAK4 MSD degradation in OCI-LY10 at 24 hrs: Average external-Abs DC50

Chain of IRAK4 (Q9NWZ3 whole entry): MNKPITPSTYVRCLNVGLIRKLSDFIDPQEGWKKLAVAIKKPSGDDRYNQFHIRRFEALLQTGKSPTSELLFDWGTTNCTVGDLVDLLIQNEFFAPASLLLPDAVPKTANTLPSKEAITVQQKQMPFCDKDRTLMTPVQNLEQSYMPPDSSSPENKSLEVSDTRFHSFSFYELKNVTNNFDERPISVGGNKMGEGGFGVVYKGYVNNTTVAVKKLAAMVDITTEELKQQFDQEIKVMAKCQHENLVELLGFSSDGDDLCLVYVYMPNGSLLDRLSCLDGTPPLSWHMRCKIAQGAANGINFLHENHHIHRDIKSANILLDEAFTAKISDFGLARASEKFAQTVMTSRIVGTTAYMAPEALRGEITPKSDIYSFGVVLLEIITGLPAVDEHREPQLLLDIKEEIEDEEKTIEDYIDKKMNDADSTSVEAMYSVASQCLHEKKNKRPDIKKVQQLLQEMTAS

| SMILES | DC50 [1, 3] | DC50 [1, 4] | pIC50 ([2]; Homo sapiens, OCI-Ly10, 96 h) | pIC50 [2] |
| --- | --- | --- | --- | --- |
| Cn1c(=O)n(C2CCC(=O)NC2=O)c2cccc(CCCOCCOCCNC(=O)[C@H]3CC[C@@H](n4cc(NC(=O)c5coc(-c6ccnc(NCC7CC7)c6)n5)c(C(F)F)n4)CC3)c21 (some centres unmarked) [I-15] | 10 to 100 nM | 10 to 100 nM | < 6.00 |  |
| Cn1c(=O)n(C2CCC(=O)NC2=O)c2ccc(CCCOCCOCCOCCOCC(=O)N3CCN([C@H]4CC[C@H](Nc5ncnn6ccc(C7CCOCC7)c56)CC4)CC3)cc21 (some centres unmarked) [I-20] | > 1000 nM | > 1000 nM | < 6.00 |  |
| Cn1c(=O)n(C2CCC(=O)NC2=O)c2ccc(CCCOCCC(=O)N3CCN([C@H]4CC[C@H](Nc5ncnc6[nH]cc(C7CCOCC7)c56)CC4)CC3)cc21 (some centres unmarked) [I-21] | > 1000 nM | > 1000 nM | 6.00 to 6.30 |  |
| Cn1c(=O)n(C2CCC(=O)NC2=O)c2ccc(CCCCCCC(=O)N3CCN([C@H]4CC[C@H](Nc5ncnc6[nH]cc(C7CCOCC7)c56)CC4)CC3)cc21 (some centres unmarked) [I-22] | > 1000 nM | > 1000 nM | 6.30 to 7.00 |  |
| Cn1c(=O)n(C2CCC(=O)NC2=O)c2ccc(CCCCOCCCCNCC(=O)N3CCN([C@H]4CC[C@H](Nc5ncnc6[nH]cc(C7CCOCC7)c56)CC4)CC3)cc21 (some centres unmarked) [I-23] | 10 to 100 nM | < 10 nM | 7.00 to 7.30 |  |
| Cc1c[nH]c2ncnc(N[C@H]3CC[C@H](N4CCN(C(=O)CCOCCCc5ccc6c(c5)n(C)c(=O)n6C5CCC(=O)NC5=O)CC4)CC3)c12 (some centres unmarked) [I-24] | > 1000 nM | > 1000 nM | < 6.00 |  |
| Cc1c[nH]c2ncnc(N[C@H]3CC[C@H](N4CCN(C(=O)COCCOCCOCCOCCCc5cccc6c5n(C)c(=O)n6C5CCC(=O)NC5=O)CC4)CC3)c12 (some centres unmarked) [I-25] | > 1000 nM | > 1000 nM | < 6.00 |  |
| Cc1c[nH]c2ncnc(N[C@H]3CC[C@H](N4CCN(C(=O)COCCOCCOCCOCCCc5ccc6c(c5)n(C)c(=O)n6C5CCC(=O)NC5=O)CC4)CC3)c12 (some centres unmarked) [I-26] | > 1000 nM | > 1000 nM | < 6.00 |  |
| Cc1ncsc1-c1ccc(CNC(=O)[C@@H]2C[C@@H](O)CN2C(=O)[C@@H](NC(=O)COCCOCCOCCOCC(=O)N2CCN(C3CCC(Nc4ncnc5cc(CC#N)ccc45)CC3)CC2)C(C)(C)C)cc1 (some centres unmarked) [I-49] | > 1000 nM |  | < 6.00 |  |
| Cc1ncsc1-c1ccc(CNC(=O)[C@@H]2C[C@@H](O)CN2C(=O)[C@@H](NC(=O)COCCOCCOCC(=O)N2CCN([C@H]3CC[C@H](Nc4ncnc5cc(CC#N)ccc45)CC3)CC2)C(C)(C)C)cc1 [I-50] | > 1000 nM |  | < 6.00 |  |
| N#CCc1ccc2c(NC3CCC(N4CCN(C(=O)COCCOCCOCCNc5cccc6c5C(=O)N(C5CCC(=O)NC5=O)C6=O)CC4)CC3)ncnc2c1 (centres unmarked) [I-51] | > 1000 nM |  | < 6.00 |  |
| N#CCc1ccc2c(N[C@H]3CC[C@H](N4CCN(C(=O)COCCOCCOCCOCCNc5cccc6c5C(=O)N(C5CCC(=O)NC5=O)C6=O)CC4)CC3)ncnc2c1 (some centres unmarked) [I-52] | > 1000 nM |  | 6.30 to 7.00 |  |
| Cn1c(=O)n(C2CCC(=O)NC2=O)c2cccc(CCCOCCOCCOCCOCC(=O)N3CCN([C@H]4CC[C@H](Nc5ncnc6[nH]cc(C7CCOCC7)c56)CC4)CC3)c21 (some centres unmarked) [I-53] | 100 to 1000 nM | 10 to 100 nM | < 6.00 |  |
| CN(CCOCCNCc1ccc2c(c1)n(C)c(=O)n2C1CCC(=O)NC1=O)C[C@H]1CC[C@H](n2cc(NC(=O)c3coc(-c4ccnc(NCC5CC5)c4)n3)c(C(F)F)n2)CC1 (some centres unmarked) [I-107] | < 10 nM |  | < 6.00 |  |
| Cn1c(=O)n(C2CCC(=O)NC2=O)c2ccc(CCCOC3CCN(C[C@H]4CC[C@H](n5cc(NC(=O)c6coc(-c7ccnc(NCC8CC8)c7)n6)c(C(F)F)n5)CC4)CC3)cc21 (some centres unmarked) [I-118] | < 10 nM |  | < 6.00 |  |
| Cn1c(=O)n(C2CCC(=O)NC2=O)c2cccc(CCCOCC3CCN(C[C@H]4CC[C@H](n5cc(NC(=O)c6coc(-c7ccnc(NCC8CC8)c7)n6)c(C(F)F)n5)CC4)CC3)c21 (some centres unmarked) [I-120] | < 10 nM |  | < 6.00 |  |
| CN(CC1CCN(Cc2ccc3c(c2)n(C)c(=O)n3C2CCC(=O)NC2=O)CC1)C[C@H]1CC[C@H](n2cc(NC(=O)c3coc(-c4ccnc(NCC5CC5)c4)n3)c(C(F)F)n2)CC1 (some centres unmarked) [I-127] | < 10 nM | < 10 nM | < 6.00 |  |
| CN(CCCOCCc1ccc2c(c1)n(C)c(=O)n2C1CCC(=O)NC1=O)C[C@H]1CC[C@H](n2cc(NC(=O)c3coc(-c4ccnc(NCC5CC5)c4)n3)c(C(F)F)n2)CC1 (some centres unmarked) [I-129] | < 10 nM |  | < 6.00 |  |
| CN(CCCc1cccc2c1n(C)c(=O)n2C1CCC(=O)NC1=O)C[C@H]1CC[C@H](n2cc(NC(=O)c3coc(-c4ccnc(NCC5CC5)c4)n3)c(C(F)F)n2)CC1 (some centres unmarked) [I-130] | < 10 nM |  | < 6.00 |  |
| CN(CCCOCCCNC(=O)c1ccc(CNCc2ccc(-c3ccc4c(cnn4CC4CC4)c3)cc2)cc1)C[C@H]1CC[C@H](n2cc(NC(=O)c3coc(-c4ccnc(NCC5CC5)c4)n3)c(C(F)F)n2)CC1 [I-131] | > 1000 nM | > 1000 nM | < 6.00 |  |
| CN(CCCOCCCNC(=O)c1ccc(CNCc2ccc(-c3ccc4c(cnn4CC4CC4)c3)cc2)cc1)C(=O)[C@H]1CC[C@H](n2cc(NC(=O)c3coc(-c4ccnc(NCC5CC5)c4)n3)c(C(F)F)n2)CC1 [I-132] | > 1000 nM | > 1000 nM | < 6.00 |  |
| CN(CCCOCCCN(C)C(=O)c1ccc(CNCc2ccc(-c3ccc4c(cnn4CC4CC4)c3)cc2)cc1)C[C@H]1CC[C@H](n2cc(NC(=O)c3coc(-c4ccnc(NCC5CC5)c4)n3)c(C(F)F)n2)CC1 [I-133] | > 1000 nM | > 1000 nM | < 6.00 |  |
| CN(CCC1CCN(C(=O)c2ccc(CNCc3ccc(-c4ccc5c(cnn5CC5CC5)c4)cc3)cc2)CC1)C[C@H]1CC[C@H](n2cc(NC(=O)c3coc(-c4ccnc(NCC5CC5)c4)n3)c(C(F)F)n2)CC1 [I-134] | > 1000 nM | > 1000 nM | < 6.00 |  |
| CN(CCCCCCCNC(=O)c1ccc(CNCc2ccc(-c3ccc4c(cnn4CC4CC4)c3)cc2)cc1)C[C@H]1CC[C@H](n2cc(NC(=O)c3coc(-c4ccnc(NCC5CC5)c4)n3)c(C(F)F)n2)CC1 [I-135] | 100 to 1000 nM | > 1000 nM | < 6.00 |  |
| Cn1c(=O)n(C2CCC(=O)NC2=O)c2cccc(CCCOC3CCN(C(=O)[C@H]4CC[C@H](n5cc(NC(=O)c6cnn7ccc(N8CCNCC8)nc67)c(C(F)F)n5)CC4)CC3)c21 (some centres unmarked) [I-136] | < 10 nM |  | < 6.00 |  |
| Cn1c(=O)n(C2CCC(=O)NC2=O)c2ccc(CCCOCCOCC(F)CNC(=O)c3cnc(Nc4ccc5cnccc5n4)cc3NC3CC3)cc21 (centres unmarked) [I-138] | > 1000 nM | > 1000 nM | < 6.00 |  |
| COc1cc(C(=O)NCCCCCCN(C)C[C@H]2CC[C@H](n3cc(NC(=O)c4coc(-c5ccnc(NCC6CC6)c5)n4)c(C(F)F)n3)CC2)ccc1NC(=O)[C@@H]1N[C@@H](CC(C)(C)C)[C@](C#N)(c2ccc(Cl)cc2F)[C@H]1c1cccc(Cl)c1F [I-140] | > 1000 nM | > 1000 nM |  | < 6.00 |
| COc1cc(C(=O)N2CCC(CCCN(C)C[C@H]3CC[C@H](n4cc(NC(=O)c5coc(-c6ccnc(NCC7CC7)c6)n5)c(C(F)F)n4)CC3)CC2)ccc1NC(=O)[C@@H]1N[C@@H](CC(C)(C)C)[C@](C#N)(c2ccc(Cl)cc2F)[C@H]1c1cccc(Cl)c1F [I-141] | > 1000 nM | > 1000 nM | < 6.00 |  |
